This note sets out measurements from PubChem BioAssay AID1996.

Values after ≈ are worked out from the molar mass of the structure shown.

For this data set the following is noted: buffer; pH 7.4; 200.0 µM.
`NC(=O)C1CCN(C(=O)c2cc(-c3ccccc3Cl)nc3ccccc23)CC1` came in with a kinetic solubility greater than 59.1 µg/mL.

Regarding `CCS(=O)(=O)N1CCN(c2ncnc3sc(C)c(C)c23)CC1`, the kinetic solubility was greater than 51.1 µg/mL.

The molecule `O=C(Nc1nc(-c2cccnc2)cs1)c1cccc([N+](=O)[O-])c1` registered a solubility (kinetic) of 0.9 µg/mL (≈ 2.76 µM).

`CC(C)(CNC(=O)CCC1CCCC1)CNC(=O)CCC1CCCC1` had a kinetic solubility of 27.1 µg/mL (≈ 77.3 µM).

Molecule `Cc1cccc(NC(=O)Cn2cc(C(=O)C3CC3)c3ccccc32)c1` returned a solubility (kinetic) of less than 0.4 µg/mL.

Take `Cc1cc(C)n(CC(=O)NCCC2=CCCCC2)n1`: the solubility (kinetic) was greater than 39.2 µg/mL.

As to `CCOC(=O)Cc1csc(NC(=O)Cc2ccccc2)n1`, the solubility (kinetic) is greater than 45.7 µg/mL.

For `COC(=O)c1sc(NC(=O)/C=C/c2ccccc2Cl)nc1C`, the kinetic solubility is 1.5 µg/mL (≈ 4.45 µM).

Consider `COc1ccccc1NC(=O)CC1SC(=N)N(c2ccccc2)C1=O` (stereo not drawn), for which the solubility (kinetic) amounted to 5.3 µg/mL (≈ 14.9 µM).

Take `CCCN(CC(=O)Nc1ccccc1OC)C(=O)c1ccncc1`: the kinetic solubility is greater than 49.1 µg/mL.

The molecule `CCN(C(=O)c1cccs1)C1CCS(=O)(=O)C1` (stereo not drawn) displayed a kinetic solubility greater than 41 µg/mL.

Take `O=[N+]([O-])c1ccc(N2CCN(c3ccccc3)CC2)nc1`: the kinetic solubility came out at 0.6 µg/mL (≈ 2.11 µM).

`NC(=O)c1c(NC(=O)c2ccccc2)sc2c1CCC2` yielded a kinetic solubility of 1.3 µg/mL (≈ 4.54 µM).

`O=C(Nc1ccc(NC(=O)C2CC2)cc1)c1cccs1`: the solubility (kinetic) is 3.3 µg/mL (≈ 11.5 µM).

Molecule `O=S(=O)(NCCc1ccncc1)c1ccc(F)cc1` yielded a solubility (kinetic) greater than 42 µg/mL.

As for `CC1CCN(C(=O)COc2cccc3c2CCN(C)C3=O)CC1`, the kinetic solubility was greater than 47.5 µg/mL.

Consider `Nc1nc(COc2ccccc2C=O)nc(Nc2ccccc2)n1`, for which the solubility (kinetic) is 32.5 µg/mL (≈ 101 µM).

Consider `O=C(COc1ccccc1F)NCCc1ccc2c(c1)OCCO2`, for which the kinetic solubility is greater than 49.7 µg/mL.

In turn, `CC(C)(C)C(=O)O/N=C(\N)c1c(Cl)cccc1Cl` gave a kinetic solubility of 30.9 µg/mL (≈ 107 µM).

Turning to `c1coc(-c2ccnc(-c3ccncc3)n2)c1`, the solubility (kinetic) is greater than 33.5 µg/mL.

`CCOC(=O)C(=O)Nc1sc(C(=O)N(CC)CC)c(C)c1C#N` came in with a kinetic solubility greater than 50.6 µg/mL.

`COC(=O)c1csc(S(=O)(=O)N2CCCCC2)c1OC` came in with a solubility (kinetic) greater than 47.9 µg/mL.

Consider `O=C(CN1CCN(Cc2ccccc2)CC1)Nc1ccccc1`, for which the kinetic solubility was greater than 46.4 µg/mL.

With `CCN(CC)C(=O)CN1CCC(c2nc3cc(C)c(C)cc3[nH]2)CC1`, the solubility (kinetic) is greater than 51.4 µg/mL.

Molecule `CN(C)Cc1c(O)ccc2occ(C(=O)c3ccc(F)cc3)c12` displayed a solubility (kinetic) greater than 47 µg/mL.

`COc1cc(OC)cc(C(=O)NCC(=O)OCC(=O)NC2CCCc3ccccc32)c1` (stereo not drawn) came in with a solubility (kinetic) of 58.5 µg/mL (≈ 137 µM).

Molecule `Cc1ccc(NC(=O)c2cccnc2)cc1C` registered a kinetic solubility greater than 33.9 µg/mL.

As for `Nc1nc(-c2cc3c(cc2Cl)OCCO3)cs1`, the kinetic solubility stood at 25.9 µg/mL (≈ 96.4 µM).

In the case of `CC1CCCC(N2CCN(C(=O)c3ccccc3F)CC2)C1` (stereo not drawn), the kinetic solubility was greater than 45.7 µg/mL.

`CC1CCCC(C)N1C(=O)COC(=O)c1cc(F)c(F)cc1Cl` (stereo not drawn) had a solubility (kinetic) greater than 51.9 µg/mL.

The molecule `O=S(N1CCc2ccccc21)C12CC3CC(CC(C3)C1)C2` (stereo not drawn) gave a kinetic solubility of 4.4 µg/mL (≈ 14.6 µM).

In the case of `COc1ccc(-c2csc(NC(=O)c3ccc(C(C)(C)C)cc3)c2C(=O)O)cc1`, the kinetic solubility is greater than 61.4 µg/mL.

Molecule `O=C1CCCN1Cc1ccccc1` registered a solubility (kinetic) greater than 26.3 µg/mL.

`FC(F)(F)c1cnc(N2CCSCC2)c(Cl)c1`: the solubility (kinetic) was less than 0.3 µg/mL.

Turning to `O=C(NCc1ccccc1F)C1CCCN1C(=O)Nc1cccc(F)c1` (stereo not drawn), the solubility (kinetic) was greater than 53.9 µg/mL.

Molecule `Cn1c(/C(C#N)=C(\O)c2ccc([N+](=O)[O-])s2)nc2ccccc21` registered a kinetic solubility of less than 0.2 µg/mL.

The molecule `CCOC(=O)c1ccccc1NC(=O)COC(=O)C1CCCC1` yielded a solubility (kinetic) of 3.1 µg/mL (≈ 9.71 µM).

For `O=C(O)c1ccccc1C(=O)NCCc1ccc(Cl)cc1`, the solubility (kinetic) was 43.3 µg/mL (≈ 143 µM).

Molecule `O=C(Nc1cccc(-c2cscn2)c1)C1CCN(Cc2ccccn2)CC1` registered a solubility (kinetic) greater than 56.8 µg/mL.

In turn, `Cc1ccc(N(C(=O)Nc2ccccc2)C2=NCCC2)cc1` came in with a kinetic solubility of 4.5 µg/mL (≈ 15.3 µM).

For the molecule `CN(CC(=O)Nc1ccc(Cl)cc1F)C1=NS(=O)(=O)c2ccccc21`, the solubility (kinetic) amounted to 7.8 µg/mL (≈ 20.4 µM).

On to `Cc1ccc(C(=O)NCC(=O)NC2CCCCCC2)cc1`, for which the solubility (kinetic) amounted to 21.1 µg/mL (≈ 73.2 µM).

`COc1ccc(OC)c2c1sc(=NC(=O)C1CC1)n2C` displayed a kinetic solubility of 0.9 µg/mL (≈ 3.08 µM).

Molecule `COc1ccc(NC(=O)c2cc(-c3ccccc3)on2)cc1OC` registered a kinetic solubility of less than 0.3 µg/mL.

`COc1ccc(Nc2ncnc3sccc23)c(OC)c1` showed a kinetic solubility of 25.1 µg/mL (≈ 87.4 µM).

For `COc1cccc(C(=O)NCc2ccco2)c1`, the solubility (kinetic) was greater than 34.7 µg/mL.

`O=C(N/N=C/c1cc(Cl)cc([N+](=O)[O-])c1O)C1CC1` gave a kinetic solubility greater than 42.6 µg/mL.

`Cc1ccsc1C(=O)OC(C)C(=O)Nc1ccc(Cl)cn1` (stereo not drawn) registered a kinetic solubility of 28.6 µg/mL (≈ 88.1 µM).

Consider `c1ccc(CCCN2CCN(c3ccccn3)CC2)cc1`, for which the solubility (kinetic) stood at 26.8 µg/mL (≈ 95.2 µM).

In turn, `COc1ccccc1NC1=C(Cl)C(=O)OC1OC(=O)c1ccco1` (stereo not drawn) had a solubility (kinetic) of 47.3 µg/mL (≈ 135 µM).

Regarding `Cc1cc(-c2nnc(CCC(=O)NCc3ccc(F)c(F)c3)o2)no1`, the kinetic solubility is greater than 52.2 µg/mL.

Molecule `Cc1ccc(C(=O)OCC(=O)NCCN2C(=O)CSC2=O)cc1[N+](=O)[O-]` came in with a solubility (kinetic) greater than 57.2 µg/mL.

Turning to `Cc1cccc(NS(=O)(=O)c2cc(Cl)ccc2Cl)n1`, the solubility (kinetic) is greater than 47.6 µg/mL.

In the case of `CC(C)(C)C(=O)O/N=C(\N)c1ccc(Oc2cc(Cl)cc(Cl)c2)c([N+](=O)[O-])c1`, the kinetic solubility was less than 0.3 µg/mL.

Consider `NC(=O)c1c(NC(=O)c2ccccc2)sc2c1CCCC2`, for which the solubility (kinetic) was 0.8 µg/mL (≈ 2.66 µM).

The molecule `COc1ccc(N2CCOCC2)c(NC(=O)c2cccnc2)c1` showed a kinetic solubility greater than 47 µg/mL.

For `Cc1noc(C)c1C(=O)N1CCN(c2ccccc2O)CC1`, the kinetic solubility stood at 44.9 µg/mL (≈ 149 µM).

The molecule `O=C(NCCCN1CCCC1=O)c1cc(-c2ccc(F)cc2)nc2ccccc12` showed a kinetic solubility greater than 58.7 µg/mL.

In turn, `CCCC1(c2ccccc2)NC(=O)N(CC(=O)Nc2ccc(N3CCOCC3)cc2)C1=O` (stereo not drawn) came in with a kinetic solubility greater than 65.5 µg/mL.

Turning to `COCCN(C(=S)Nc1ccc(C)cc1C)C(C)c1cccs1` (stereo not drawn), the kinetic solubility came out at 7.7 µg/mL (≈ 22.1 µM).

As to `COc1ccc(CCC(=O)NCc2cccc(C(F)(F)F)c2)cc1`, the kinetic solubility was found to be 10.3 µg/mL (≈ 30.5 µM).

The molecule `CCOP(=O)(OCC)C(NC(=O)CC(C)C)C(Cl)(Cl)Cl` (stereo not drawn) registered a solubility (kinetic) greater than 55.3 µg/mL.

For the molecule `CC(=O)c1c(C(=O)O)c2ccccc2[nH]c1=O`, the kinetic solubility is 34 µg/mL (≈ 147 µM).

In the case of `COc1ccc(CCNC(=O)C2CC(O)CN2S(=O)(=O)c2ccc(Cl)cc2)cc1OC` (stereo not drawn), the kinetic solubility was greater than 70.3 µg/mL.

The molecule `Cc1cc(S(=O)(=O)NCC2CC2)c(Cl)cc1Cl` registered a kinetic solubility greater than 44.1 µg/mL.

In turn, `COc1ccccc1NCCC(=O)O` came in with a solubility (kinetic) greater than 29.3 µg/mL.

Turning to `COc1ccccc1CNC(=O)c1oc2ccccc2c1C`, the kinetic solubility is 9.8 µg/mL (≈ 33.2 µM).

For `CC(C)CC(=O)Nc1ccc(S(=O)(=O)N2CCCC2)cc1`, the kinetic solubility was greater than 46.6 µg/mL.

The molecule `O=c1cc(C(F)(F)F)[nH]c2ccc(OC(F)(F)F)cc12` gave a solubility (kinetic) greater than 44.6 µg/mL.

Regarding `COc1ccc(Cn2c(=O)cc(C)[nH]c2=S)cc1`, the kinetic solubility amounted to 20.2 µg/mL (≈ 77 µM).

With `c1ccc(-c2nc(-c3ccc(-c4ccon4)s3)no2)cc1`, the solubility (kinetic) came to 0.6 µg/mL (≈ 2.03 µM).

In the case of `CC1(c2ccccc2)NC(=O)N(CC(=O)Nc2ccccc2C(=O)NC2CC2)C1=O` (stereo not drawn), the solubility (kinetic) is greater than 61 µg/mL.

`O=C(O)c1ccc(N=Cc2c(O)ccc3oc4c(c23)CCCC4)cc1`: the kinetic solubility was greater than 50.3 µg/mL.

For `COCCCNC(=O)c1ccc(-c2nc3ccccc3nc2-c2ccccc2)cc1`, the kinetic solubility was 32.4 µg/mL (≈ 81.5 µM).

`NC1=NC(=O)/C(=C/c2ccsc2)S1`: the kinetic solubility stood at 19.5 µg/mL (≈ 92.7 µM).

Regarding `O=C(CC(c1ccc(F)cc1)c1ccco1)Nc1nccs1` (stereo not drawn), the solubility (kinetic) was 14.7 µg/mL (≈ 46.5 µM).

In turn, `CN(C)c1cc(-c2ccc(Cl)c(Cl)c2)oc(=O)c1Cl` showed a kinetic solubility of 0.7 µg/mL (≈ 2.2 µM).

Turning to `COc1ccc2oc(=O)c(C(=O)NCc3ccc(F)cc3)cc2c1`, the kinetic solubility was found to be 0.8 µg/mL (≈ 2.44 µM).

The molecule `C/C(CC(=O)NC(C)c1ccccc1)=N\NC(N)=S` (stereo not drawn) yielded a solubility (kinetic) greater than 41.8 µg/mL.

`S=C(Nc1ccc(Oc2ccccc2)cc1)Nc1cccnc1` showed a solubility (kinetic) of 30 µg/mL (≈ 93.3 µM).

The molecule `O=C(Nc1ncccc1Cl)c1cc2ccccc2o1` yielded a solubility (kinetic) of 11.4 µg/mL (≈ 41.8 µM).

For `COc1ccc(C(=O)N2CCN(C(=O)C3CCCO3)CC2)cc1[N+](=O)[O-]` (stereo not drawn), the kinetic solubility is greater than 54.5 µg/mL.

In the case of `COC(=O)c1ccccc1NC(=S)NC(C)=O`, the kinetic solubility is greater than 37.8 µg/mL.

Molecule `Cc1onc(-c2ccccc2)c1C(=O)OCC(=O)N(C)c1ccccc1` registered a kinetic solubility of 39.2 µg/mL (≈ 112 µM).

With `CC(=O)c1ccc(NC(=O)CCCC(=O)c2ccccc2)cc1`, the kinetic solubility came out at 3.6 µg/mL (≈ 11.6 µM).

Regarding `COc1cc(/C=C/C(=O)N(C)CC(=O)Nc2ccccc2SC)cc(OC)c1OC`, the solubility (kinetic) is greater than 64.6 µg/mL.

`CCCCNC(=S)N1CCN(c2ccccc2Cl)CC1`: the solubility (kinetic) was 13.1 µg/mL (≈ 42 µM).

On to `CCC(=O)NCc1csc(-c2cccs2)n1`, for which the solubility (kinetic) is greater than 37.9 µg/mL.

Take `CCCCc1ccc(NC(=O)NCc2cccnc2)cc1`: the solubility (kinetic) worked out at 21.1 µg/mL (≈ 74.5 µM).

`O=C(O)C1C2CCC(O2)C1C(=O)Nc1ccc(OC(F)F)cc1` (stereo not drawn) yielded a solubility (kinetic) of 44.3 µg/mL (≈ 135 µM).

`O=C(NCc1ccco1)/C(=C/c1ccccc1)NC(=O)c1ccco1`: the kinetic solubility was 42.4 µg/mL (≈ 126 µM).

`O=C(Oc1ccc(Br)cc1)c1cccnc1` had a kinetic solubility of 34.3 µg/mL (≈ 123 µM).

Consider `Cc1cc(C)cc(NC(=O)CN2C(=O)C3CC=CCC3C2=O)c1` (stereo not drawn), for which the kinetic solubility was greater than 46.9 µg/mL.

Regarding `Cc1ccc(S(=O)(=O)N(C)CC(=O)N2CCCCCC2)cc1`, the kinetic solubility came out at 48.4 µg/mL (≈ 149 µM).

Take `COc1ccc(C)cc1S(=O)(=O)NC(C)C(=O)NC1CC1` (stereo not drawn): the kinetic solubility was greater than 46.9 µg/mL.

With `Cc1ccc2ncnc(Oc3ncccc3[N+](=O)[O-])c2c1`, the solubility (kinetic) worked out at 34.7 µg/mL (≈ 123 µM).

`CC(C#N)Sc1ccc(S(=O)(=O)N2CCCC2)cn1` (stereo not drawn): the kinetic solubility came out at 37.7 µg/mL (≈ 127 µM).

As for `COCCNC(=S)N1CCN(C)CC1.O=C(O)C(=O)O`, the kinetic solubility was greater than 46.1 µg/mL.

`O=C(COc1ccc2ccc(=O)oc2c1)NC1CCCCC1` displayed a solubility (kinetic) greater than 45.2 µg/mL.

Take `O=C(CSc1ccncc1)Nc1ccc2ccccc2c1`: the kinetic solubility came out at 2.3 µg/mL (≈ 7.81 µM).

For `Cc1nc2ccc(Br)cc2c(-c2ccccc2)c1C(=O)O`, the kinetic solubility was greater than 51.3 µg/mL.

`O=C(COc1ccccc1Cl)N1CCc2ccccc21` yielded a kinetic solubility of 1.1 µg/mL (≈ 3.82 µM).

On to `Cc1ccc(C(=O)OCC(=O)Nc2ccccc2Cl)c(O)c1`, for which the kinetic solubility is 0.8 µg/mL (≈ 2.5 µM).
